For one series, the target named is porcine megalin (Sus scrofa, UniProt C0HL13). Put plainly: Surface plasmon resonance: competition for lysozyme binding to chip-immobilized megalin. To be noted: 10 µg/ml lysozyme in 0 to 100 mM amino-acid. The method, then: To directly address whether supra-physiological concentrations of dibasic amino-acids (dAAs) can interfere with binding of protein ligands to megalin, we used surface plasmon resonance. Sensor chips were derivatized with porcine megalin at high density. […] After flushing, chips were incubated with 10 µg/ml of three analytes: the megalin chaperone, RAP (receptor-associated protein), as positive control (not shown), or two physiological megalin ligands: transcobalamine:cobalamine complexes (TC:B12; Fig. 1; sensorgrams shown at Supplemental Fig. 1a) or lysozyme (Supplemental Fig. 1b), diluted in 0 to 100 mM of the same amino-acids in buffer. […] The supraphysiological range for effective competition in vitro defined the necessary increment in urinary concentration from dietary supplementation for significant competition in vivo.
Sequence of porcine megalin (C0HL13 26-4652): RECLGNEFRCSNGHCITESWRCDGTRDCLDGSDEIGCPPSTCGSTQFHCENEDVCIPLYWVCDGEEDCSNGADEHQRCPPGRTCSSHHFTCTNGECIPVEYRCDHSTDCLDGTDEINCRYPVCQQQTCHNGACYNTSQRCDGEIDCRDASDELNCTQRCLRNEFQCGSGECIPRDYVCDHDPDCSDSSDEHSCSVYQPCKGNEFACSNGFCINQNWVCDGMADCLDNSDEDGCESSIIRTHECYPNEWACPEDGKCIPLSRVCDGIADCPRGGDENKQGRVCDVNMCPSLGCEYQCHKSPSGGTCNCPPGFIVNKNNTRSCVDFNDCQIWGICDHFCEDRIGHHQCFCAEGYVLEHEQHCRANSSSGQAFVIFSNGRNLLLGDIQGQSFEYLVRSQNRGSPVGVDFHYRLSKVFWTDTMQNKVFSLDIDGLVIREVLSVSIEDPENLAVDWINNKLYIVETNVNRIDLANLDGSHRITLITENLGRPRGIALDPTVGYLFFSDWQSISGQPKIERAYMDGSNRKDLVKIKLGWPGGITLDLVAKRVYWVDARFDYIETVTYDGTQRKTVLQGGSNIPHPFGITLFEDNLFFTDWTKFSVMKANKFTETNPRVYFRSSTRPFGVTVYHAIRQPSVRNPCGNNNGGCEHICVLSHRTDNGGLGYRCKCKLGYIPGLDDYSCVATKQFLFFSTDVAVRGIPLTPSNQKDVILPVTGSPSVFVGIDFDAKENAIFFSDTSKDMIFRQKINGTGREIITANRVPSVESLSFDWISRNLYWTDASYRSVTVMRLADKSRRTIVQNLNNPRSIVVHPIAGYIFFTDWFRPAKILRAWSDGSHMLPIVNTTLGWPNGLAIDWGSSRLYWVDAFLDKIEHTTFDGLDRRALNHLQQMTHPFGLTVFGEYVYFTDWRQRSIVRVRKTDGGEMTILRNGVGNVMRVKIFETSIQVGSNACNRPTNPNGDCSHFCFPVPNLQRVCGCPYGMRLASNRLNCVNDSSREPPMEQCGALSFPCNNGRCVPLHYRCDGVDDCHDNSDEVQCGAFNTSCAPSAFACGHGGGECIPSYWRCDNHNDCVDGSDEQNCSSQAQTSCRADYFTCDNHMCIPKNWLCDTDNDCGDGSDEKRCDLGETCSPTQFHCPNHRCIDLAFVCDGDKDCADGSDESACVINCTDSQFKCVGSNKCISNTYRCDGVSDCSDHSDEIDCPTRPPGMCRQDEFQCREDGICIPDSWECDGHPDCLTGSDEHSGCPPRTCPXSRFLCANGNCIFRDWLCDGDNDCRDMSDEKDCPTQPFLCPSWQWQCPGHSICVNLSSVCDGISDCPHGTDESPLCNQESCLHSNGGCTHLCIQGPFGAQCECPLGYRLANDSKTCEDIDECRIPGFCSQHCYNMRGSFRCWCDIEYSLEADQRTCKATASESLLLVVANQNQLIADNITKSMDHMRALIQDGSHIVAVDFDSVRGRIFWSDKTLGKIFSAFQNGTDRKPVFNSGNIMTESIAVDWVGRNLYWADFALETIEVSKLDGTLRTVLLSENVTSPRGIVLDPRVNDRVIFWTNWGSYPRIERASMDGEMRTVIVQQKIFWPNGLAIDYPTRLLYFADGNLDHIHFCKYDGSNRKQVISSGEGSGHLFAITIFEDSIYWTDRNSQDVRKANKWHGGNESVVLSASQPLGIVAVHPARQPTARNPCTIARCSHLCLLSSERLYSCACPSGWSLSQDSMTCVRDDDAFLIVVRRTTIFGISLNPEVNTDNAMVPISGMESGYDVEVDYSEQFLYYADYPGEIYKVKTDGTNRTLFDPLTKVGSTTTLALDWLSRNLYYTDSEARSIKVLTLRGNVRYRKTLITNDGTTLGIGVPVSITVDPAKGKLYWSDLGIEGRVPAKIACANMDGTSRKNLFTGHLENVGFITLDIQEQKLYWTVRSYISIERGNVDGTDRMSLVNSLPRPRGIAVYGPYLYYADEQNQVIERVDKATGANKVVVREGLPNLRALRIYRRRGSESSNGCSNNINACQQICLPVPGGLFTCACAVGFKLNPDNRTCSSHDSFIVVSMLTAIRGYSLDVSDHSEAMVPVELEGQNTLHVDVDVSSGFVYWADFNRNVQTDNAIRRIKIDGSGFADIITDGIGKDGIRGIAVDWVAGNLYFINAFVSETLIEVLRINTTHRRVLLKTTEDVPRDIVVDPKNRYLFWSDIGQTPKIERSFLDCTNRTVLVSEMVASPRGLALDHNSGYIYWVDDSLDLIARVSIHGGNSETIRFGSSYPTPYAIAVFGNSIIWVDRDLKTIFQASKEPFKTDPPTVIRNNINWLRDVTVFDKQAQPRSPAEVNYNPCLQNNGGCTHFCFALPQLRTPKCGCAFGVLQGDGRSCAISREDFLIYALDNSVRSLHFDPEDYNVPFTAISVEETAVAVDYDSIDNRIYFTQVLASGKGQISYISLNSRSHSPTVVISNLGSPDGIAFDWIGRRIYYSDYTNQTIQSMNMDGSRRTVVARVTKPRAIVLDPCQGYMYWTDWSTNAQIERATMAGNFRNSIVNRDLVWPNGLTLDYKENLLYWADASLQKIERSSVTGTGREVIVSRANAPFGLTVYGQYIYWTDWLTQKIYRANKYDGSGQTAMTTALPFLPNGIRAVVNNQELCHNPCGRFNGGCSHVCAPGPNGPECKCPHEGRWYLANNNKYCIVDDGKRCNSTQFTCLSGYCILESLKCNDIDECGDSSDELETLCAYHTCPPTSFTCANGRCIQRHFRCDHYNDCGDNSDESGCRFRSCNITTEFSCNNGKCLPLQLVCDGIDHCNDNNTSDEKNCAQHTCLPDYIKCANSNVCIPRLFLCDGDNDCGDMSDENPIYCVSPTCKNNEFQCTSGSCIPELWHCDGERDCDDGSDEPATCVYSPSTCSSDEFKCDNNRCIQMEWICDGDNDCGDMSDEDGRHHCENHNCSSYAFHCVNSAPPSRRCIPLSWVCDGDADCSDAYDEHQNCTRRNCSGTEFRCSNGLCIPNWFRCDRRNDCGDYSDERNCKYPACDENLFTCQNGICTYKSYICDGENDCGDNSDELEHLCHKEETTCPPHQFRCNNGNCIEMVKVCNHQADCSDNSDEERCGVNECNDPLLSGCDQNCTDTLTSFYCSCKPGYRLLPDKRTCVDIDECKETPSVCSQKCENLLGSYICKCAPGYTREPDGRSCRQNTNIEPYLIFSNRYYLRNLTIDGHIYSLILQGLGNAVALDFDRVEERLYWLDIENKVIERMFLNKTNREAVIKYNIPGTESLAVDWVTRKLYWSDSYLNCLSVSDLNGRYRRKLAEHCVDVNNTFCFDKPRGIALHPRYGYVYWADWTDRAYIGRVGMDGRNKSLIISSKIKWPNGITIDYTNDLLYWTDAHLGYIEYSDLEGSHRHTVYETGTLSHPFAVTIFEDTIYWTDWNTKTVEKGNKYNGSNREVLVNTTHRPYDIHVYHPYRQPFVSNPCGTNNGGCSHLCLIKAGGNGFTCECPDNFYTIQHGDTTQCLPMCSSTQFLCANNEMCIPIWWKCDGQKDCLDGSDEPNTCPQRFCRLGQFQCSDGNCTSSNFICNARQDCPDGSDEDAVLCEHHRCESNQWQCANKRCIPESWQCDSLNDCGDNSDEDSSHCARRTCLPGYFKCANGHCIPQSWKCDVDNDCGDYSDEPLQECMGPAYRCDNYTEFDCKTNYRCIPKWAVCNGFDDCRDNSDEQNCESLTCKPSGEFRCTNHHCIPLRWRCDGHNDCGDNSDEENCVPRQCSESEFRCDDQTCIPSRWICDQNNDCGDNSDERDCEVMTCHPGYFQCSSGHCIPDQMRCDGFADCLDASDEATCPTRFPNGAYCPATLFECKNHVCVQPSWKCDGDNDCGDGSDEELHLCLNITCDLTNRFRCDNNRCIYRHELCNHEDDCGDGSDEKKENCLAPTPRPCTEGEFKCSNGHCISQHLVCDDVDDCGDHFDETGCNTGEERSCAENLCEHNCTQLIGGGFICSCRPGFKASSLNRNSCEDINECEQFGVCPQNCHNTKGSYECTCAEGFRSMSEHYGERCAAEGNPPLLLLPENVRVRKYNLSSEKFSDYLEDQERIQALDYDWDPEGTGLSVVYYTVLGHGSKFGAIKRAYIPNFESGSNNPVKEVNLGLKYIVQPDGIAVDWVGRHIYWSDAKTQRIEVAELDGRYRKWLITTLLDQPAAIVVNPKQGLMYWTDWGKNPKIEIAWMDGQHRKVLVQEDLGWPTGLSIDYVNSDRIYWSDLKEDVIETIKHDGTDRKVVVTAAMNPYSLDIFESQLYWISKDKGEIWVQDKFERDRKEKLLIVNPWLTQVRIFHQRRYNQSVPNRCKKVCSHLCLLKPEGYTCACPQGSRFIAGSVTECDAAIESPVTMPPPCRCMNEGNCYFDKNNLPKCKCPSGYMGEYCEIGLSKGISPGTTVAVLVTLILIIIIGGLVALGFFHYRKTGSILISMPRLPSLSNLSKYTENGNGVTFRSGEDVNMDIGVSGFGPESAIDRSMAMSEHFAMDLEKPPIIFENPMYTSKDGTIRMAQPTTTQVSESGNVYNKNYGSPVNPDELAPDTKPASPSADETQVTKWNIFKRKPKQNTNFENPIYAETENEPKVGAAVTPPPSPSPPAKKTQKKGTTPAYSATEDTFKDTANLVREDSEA
Surface plasmon resonance (SPR) analysis of the binding to chip-immobilized megalin of receptor-associated protein (RAP), transcobalamine:cobalamine complex (TC:B12) and lysozyme was carried out using a Biacore T200 instrument (Uppsala, Sweden). The sensor chips (type CM5) were activated with a 1:1 mixture of 0.2 M N-ethyl-N′-(3-dimethylaminopropyl) carbodiimide and 0.05 M N-hydroxysuccinimide in H2O. Porcine megalin[49] was immobilized on the chip in 10 mM sodium acetate, pH 4.0, and the remaining binding sites were blocked with 1 M ethanolamine, pH 8.5. The SPR signal generated from immobilized megalin were obtained with a density of 4.5 fmol protein/mm^2.
Human RAP was produced as recombinant protein in E. coli[50] and used to validate the sensor chip. TC was purified and complexed with B12 as described (TC/B12)[50],[51]. Human recombinant lysozyme was purchased from Sigma-Aldrich (expressed in rice, # L1667). Sensorgrams were generated using each of these three ligands at 10 µg/ml in a running buffer consisting of 10 mM Hepes, 150 mM NaCl, 4 mM CaCl2 and 0.05% Tween 20, pH 7.4. The flow cells were regenerated with 1 M ethanolamine pH 9.0. Analyte testing was performed as a dual injection starting with running buffer supplemented with the defined concentrations of amino acids followed by injection of analyte in the same solution. The pH of all buffers was adjusted after amino acids addition. All binding experiments were made as at least independent triplicate of technical duplicates and data were analyzed using the Biacore T200 evaluation software version 3.1.
For orientation: Surface plasmon resonance follows binding to a sensor surface in real time, without labels.

In another series the test system is megalin pathway. Put plainly: LMW proteinuria (urinary CC16) in WT mice under 5x-dAA diets. In kind it is in vivo. To be noted: WT C57Bl-6 mice, 3 weeks diet, vs control diet. The method, then: In a second experiment, 5x-D-lysine was compared to regular diet.
(§1) Body weight was recorded before entering the metabolic cages. […] Creatinine clearance was normalized by mouse body weight.

In another series the test system is megalin. Put plainly: Confocal imaging of megalin localization in kidney proximal tubular cells of WT mice. In kind it is in vivo. To be noted: WT female mice, two weeks diet, kidney cortex.
Series [1] is described as follows: Clinical urine and serum analyses in Ctns KO mice under 5x-dAA diets.
Description: We also attempted to further discriminate between luminal (competition for surface megalin binding) and intracellular metabolic effects (see Discussion) by comparing the effects of 5x-L-lysine to its stereoisomer, 5x-D-lysine. Unless stated otherwise, diets were initiated at 6 months-of-age, and mice were studied then euthanized at 8 months-of-age (2-months treatment). This time frame was selected for two reasons. First, in the mouse cystinosis model, this an appropriate window to evaluate the impact on PTC alterations based on changes in kidney cystine accumulation and overall function. […] Second, although primary prevention by earlier intervention (from 2-to-6 months-of-age) better mimics perinatal genetic megalin ablation, thus could be more efficient, secondary intervention (starting at 6 months-of-age), when disease becomes clinically apparent, is more relevant for further translational studies.
as §1

The subject of a further series is Ctns KO mice kidneys. Put plainly: Kidney cystine content in Ctns KO mice. Type of series: in vivo. To be noted: for mean kidney cystine at 8 months-of-age: Ctns KO female mice, diet from 6-to-8 months-of-age; for kidney cystine as percentage of mean control diet, pooled for 8 and 12 months-of-age: 2 and 6 months of treatment. The method, then: For this pilot study, we selected tissue accumulation of cystine as a clear and measurable outcome to quantify long-term interference of dAAs with the endocytic supply of disulfide-rich plasma proteins to kidney PTCs.
Mice were euthanized by cabon dioxide (CO2) inhalation. Dissected tissues were homogenized in 10 mM N-ethylmaleimide. Protein fraction was obtained after precipitation in 10% 5-sulfosalicylic acid and centrifugation at 20,000g for 20 min at 4 °C. Protein pellet was resuspended in 100 mM NaOH and assayed by the Bio-Rad Protein Assay according to manufacturer’s instructions. Supernatant (50 μl) was mixed with 50 μL of the internal standard solution (Cystine d6) and vortexed for 5 s; then the mixture was extracted with 200 μl of acetonitrile, vortexed for at least 30 s, then centrifuged at 13,000 rpm for 9 min. Liquid chromatography and mass spectrometry analysis was performed by a UHPLC Agilent 1290 Infinity II 6470 (Agilent Technologies) equipped with an ESI-JET-STREAM source operating in the positive ion (ESI +) mode. Equipment was controlled and data were analyzed using MassHunter Workstation (Agilent Technologies). The separation column was InfinityLab Poroshell 120 HILIC 1.9 μm 100 × 2.1 mm (Agilent Technologies). Validation of the method was performed basing on the US Food and Drug Administration (FDA) guideline for industry bioanalytical method validation (FDA 2013) and European Medicines Agency (EMA) guideline (EMA 2011). The assay was validated for selectivity, specificity, linearity and limit of quantification, accuracy and precision, matrix effects and recovery, and stability.

The subject of a further series is NaPi-IIa and SGLT-2. The series is described as follows: NaPi-IIa and SGLT-2 mRNA levels in Ctns KO mice kidneys. Particulars: Ctns KO mice kidneys at 8 months of age, fold-change viz control diet. In kind it is in vivo. How it is done: At cellular level, we assessed PT cell death linked to compensatory renewal, by measuring Ki-67 immunolabelling abundance, a validated proliferation index (Fig. 6a)[22]. […] At subcellular level, NaPi-IIa and SGLT-2 mRNA levels were measured as apical differentiation markers (Fig. 6b,c).
Figure 6 Effects of diets on selected PTC indices in Ctns KO mice kidneys at 8 months of age. (a) Proliferative events in PTCs were identified by Ki-67 immunolabelling in confocal images and scored over random fields to cumulative areas of 0.96 mm^2. […] For representative confocal images and proliferation events in all cortical compartments, see Supplemental Fig. 6. (b,c) Apical differentiation state. Expression levels of NaPi-IIa and SGLT-2 as representative apical PT transporters were calculated as ratios to the housekeeping gene, HPRT1, and presented as fold-change viz control diet.

Setting [2] is: Ctns KO mice at 8 months of age, 2 months of treatment, serum, mean ± SEM.
Setting [3] is: Ctns KO mice at 8 months of age, 2 months of treatment, urine, mean ± SEM.

Each structure is given as a SMILES string.

Here are results for two compounds from article PMC10570359, “Dietary supplementation of cystinotic mice by lysine inhibits the megalin pathway and decreases kidney cystine content” (Scientific Reports, 2023).

Consider `N=C(N)NCCC[C@H](N)C(=O)O` [5x-L-arginine, L-arginine], for which the “effect on megalin binding of lysozyme” value on porcine megalin is recorded as “concentration-dependent decrease”. Besides, the “increase of urinary excretion of CC16 (normalized for creatinine excretion)” value in the series on megalin pathway is on record as “did not detectably increase”. The “subcellular localization of megalin in PTCs” value in the series on megalin is recorded as “no relocation”. Further, in series [1] (mouse, in vivo), the Calculated creatinine clearance is on record as 40.7 ± 3.5 µL/min, the Serum creatinine is 0.9 ± 0.1 mg/dL, the “Serum cystatin-C” value worked out at 1092 ± 56.5 ng/mL and the Serum glucose is reported as 170.9 ± 9.5 mg/dL. In series [1] (mouse, in vivo), the Serum phosphate was determined as 9.7 ± 0.3 mg/dL, the Serum urea was determined as 63.6 ± 3.8 mg/dL, the Urine creatinine amounted to 22.1 ± 2.7 mg/dL and the Urine glucose/creatinine was determined as 25.8 ± 4.0 g/g. In series [1] (mouse, in vivo), this compound registered a Urine phosphate/creatinine of 1.9 ± 0.2 g/g and a Urine urea/creatinine of 238.2 ± 17.3 g/g. In the series on Ctns KO mice kidneys, the “mean kidney cystine at 8 months-of-age” value is 90.0 ± 32.3 nmol hemi-cystine/mg kidney protein. Moreover, the “kidney cystine as percentage of mean control diet, pooled for 8 and 12 months-of-age” value in the series on Ctns KO mice kidneys (Ctns KO mice) was “without reaching statistical significance”. Also, in the series on NaPi-IIa and SGLT-2, the “NaPi-IIa and SGLT-2 mRNA levels (apical differentiation markers)” value is reported as “failed to protect”.

For `NCCCC[C@H](N)C(=O)O` [5x-L-lysine, L-lysine], on porcine megalin, the “effect on megalin binding of lysozyme” value is listed as “concentration-dependent decrease”. For the same compound, the “increase of urinary excretion of CC16 (normalized for creatinine excretion)” value in the series with megalin pathway was determined as 7 fold. Moreover, the “subcellular localization of megalin in PTCs” value with megalin is “no relocation”. In series [1] (Ctns KO mice at 8 months of age, 2 months of treatment, mean ± SEM), this compound came in with a Body weight of 23.0 ± 0.9 g. In series [1] (setting [2]), the Serum creatinine was 0.8 ± 0.1 (n = 9) mg/dL, the “Serum cystatin-C” value stood at 669.2 ± 33.2 ng/mL, the Serum glucose is listed as 169.1 ± 9.3 (n = 9) mg/dL and the Serum phosphate is given as 10.1 ± 0.5 (n = 9) mg/dL. Moreover, in series [1] (setting [2]), the Serum urea is on record as 58.3 ± 2.6 (n = 9) mg/dL. In series [1] (setting [3]), this compound registered a Daily creatinine output of 0.7 ± 0.1 mg/day, a Diuresis of 2.8 ± 0.2 mL/day, a Urine creatinine of 25.6 ± 2.5 mg/dL and a Urine glucose/creatinine of 19.0 ± 4.6 g/g. In series [1] (setting [3]), this compound registered a Urine phosphate/creatinine of 2.3 ± 0.4 g/g and a Urine urea/creatinine of 173.0 ± 15.2 g/g. Besides, the “mean kidney cystine at 8 months-of-age” value with Ctns KO mice kidneys is listed as 83.6 ± 38.7 nmol hemi-cystine/mg kidney protein. In addition, in the series on Ctns KO mice kidneys (Ctns KO mice), the “kidney cystine as percentage of mean control diet, pooled for 8 and 12 months-of-age” value is recorded as “significantly lower than control”. The “cumulative decrease of kidney cystine accumulation” value in the series with Ctns KO mice kidneys (Ctns KO mice, two-months treatment from 6-to-8 months of age) was “~ twofold”. For the same compound, the “NaPi-IIa and SGLT-2 mRNA levels (apical differentiation markers)” value in the series with NaPi-IIa and SGLT-2 is on record as “significant yet limited benefit”.
